In patent publication US20260262643A1, “HERBICIDAL BENZOXAZINES” (FMC CORPORATION, priority 2022, published 2026):

Columns and labels:
[1] = test system: barnyardgrass; assay: Test B flooded paddy test; assay type: in vivo, Echinochloa crus-galli; conditions: 250 g ai/ha, Flood, 13 days, 0 to 100 scale (0 no effect, 100 complete control)
Procedure, shortened: (§1)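 Visual scores from 0 (no effect) to 100 (complete kill) were assigned 13 days after treatment by comparison with controls. Seedlings had been treated at two leaves by adding compound to floodwater standing 3 cm deep, kept at that level in the greenhouse.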

[2] = test system: kochia; assay: Test A postemergence; assay type: in vivo, Bassia scoparia; conditions: postemergence, 10 days; for Kochia plant response rating: 125 g ai/ha, 0 to 100 scale, 0 no effect, 100 complete control; for Plant response rating, Kochia: 500 g ai/ha, visual injury, 0 to 100 scale (0 no effect, 100 complete control)
Procedure, shortened: (§2)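 Loam/sand soil; pre-em directed soil spray at planting, post-em spray at 1–2 leaf (2–10 cm). Compound in non-phytotoxic solvent + surfactant. Greenhouse 10 d; visual injury vs untreated, 0 = no effect, 100 = complete control.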

[3] = test system: wheat; assay: Test A postemergence; assay type: in vivo, Triticum aestivum; conditions: postemergence, 10 days; for Wheat plant response rating: 125 g ai/ha, 0 to 100 scale, 0 no effect, 100 complete control; for Plant response rating, Wheat: 500 g ai/ha, visual injury, 0 to 100 scale (0 no effect, 100 complete control)
Procedure, shortened: as §2

[4] = test system: corn; assay: Test A postemergence; assay type: in vivo, Zea mays; conditions: postemergence, 10 days; for Corn plant response rating: 125 g ai/ha, 0 to 100 scale, 0 no effect, 100 complete control; for Plant response rating, Corn: 500 g ai/ha, visual injury, 0 to 100 scale (0 no effect, 100 complete control)
Procedure, shortened: as §2

[5] = test system: oat, wild; assay: Test A postemergence; assay type: in vivo, Avena fatua; conditions: postemergence, 10 days; for Oat, Wild plant response rating: 125 g ai/ha, 0 to 100 scale, 0 no effect, 100 complete control; for Plant response rating, Oat, Wild: 500 g ai/ha, visual injury, 0 to 100 scale (0 no effect, 100 complete control)
Procedure, shortened: as §2

[6] = test system: ragweed; assay: Test A preemergence; assay type: in vivo, Ambrosia artemisiifolia
Procedure, shortened: as §2

[7] = test system: pigweed, palmer; assay: Test A postemergence; assay type: in vivo, Amaranthus palmeri; conditions: postemergence, 10 days; for Pigweed, Palmer plant response rating: 125 g ai/ha, 0 to 100 scale, 0 no effect, 100 complete control; for Plant response rating, Pigweed, Palmer: 500 g ai/ha, visual injury, 0 to 100 scale (0 no effect, 100 complete control)
Procedure, shortened: as §2

[8] = test system: foxtail, giant; assay: Test A preemergence; assay type: in vivo, Setaria faberi
Procedure, shortened: as §2

[9] = test system: ragweed; assay: Test A postemergence; assay type: in vivo, Ambrosia artemisiifolia; conditions: postemergence, 10 days; for Ragweed plant response rating: 125 g ai/ha, 0 to 100 scale, 0 no effect, 100 complete control; for Plant response rating, Ragweed: 500 g ai/ha, visual injury, 0 to 100 scale (0 no effect, 100 complete control)
Procedure, shortened: as §2

[10] = test system: oat, wild; assay: Test A preemergence; assay type: in vivo, Avena fatua
Procedure, shortened: as §2

[11] = test system: goosegrass; assay: Test A postemergence; assay type: in vivo, Eleusine indica; conditions: postemergence, 10 days; for Goosegrass plant response rating: 125 g ai/ha, 0 to 100 scale, 0 no effect, 100 complete control; for Plant response rating, Goosegrass: 500 g ai/ha, visual injury, 0 to 100 scale (0 no effect, 100 complete control)
Procedure, shortened: as §2

[12] = test system: ryegrass, Italian; assay: Test A postemergence; assay type: in vivo, Lolium multiflorum; conditions: postemergence, 10 days; for Ryegrass, Italian plant response rating: 125 g ai/ha, 0 to 100 scale, 0 no effect, 100 complete control; for Plant response rating, Ryegrass, Italian: 500 g ai/ha, visual injury, 0 to 100 scale (0 no effect, 100 complete control)
Procedure, shortened: as §2

[13] = test system: wheat; assay: Test A preemergence; assay type: in vivo, Triticum aestivum
Procedure, shortened: as §2

[14] = test system: ryegrass, Italian; assay: Test A preemergence; assay type: in vivo, Lolium multiflorum
Procedure, shortened: as §2

[15] = test system: kochia; assay: Test A preemergence; assay type: in vivo, Bassia scoparia
Procedure, shortened: as §2

[16] = test system: goosegrass; assay: Test A preemergence; assay type: in vivo, Eleusine indica
Procedure, shortened: as §2

[17] = test system: galium; assay: Test A postemergence; assay type: in vivo, Galium aparine; conditions: postemergence, 10 days; for Galium plant response rating: 125 g ai/ha, 0 to 100 scale, 0 no effect, 100 complete control; for Plant response rating, Galium: 500 g ai/ha, visual injury, 0 to 100 scale (0 no effect, 100 complete control)
Procedure, shortened: as §2

[18] = test system: horseweed; assay: Test A postemergence; assay type: in vivo, Erigeron canadensis; conditions: postemergence, 10 days; for Horseweed plant response rating: 125 g ai/ha, 0 to 100 scale, 0 no effect, 100 complete control; for Plant response rating, Horseweed: 500 g ai/ha, visual injury, 0 to 100 scale (0 no effect, 100 complete control)
Procedure, shortened: as §2

[19] = test system: foxtail, giant; assay: Test A postemergence; assay type: in vivo, Setaria faberi; conditions: postemergence, 10 days; for Foxtail, Giant plant response rating: 125 g ai/ha, 0 to 100 scale, 0 no effect, 100 complete control; for Plant response rating, Foxtail, Giant: 500 g ai/ha, visual injury, 0 to 100 scale (0 no effect, 100 complete control)
Procedure, shortened: as §2

[20] = test system: rice; assay: Test B flooded paddy test; assay type: in vivo, Oryza sativa; conditions: 250 g ai/ha, Flood, 13 days, 0 to 100 scale (0 no effect, 100 complete control)
Procedure, shortened: as §1

[21] = test system: blackgrass; assay: Test A postemergence; assay type: in vivo, Alopecurus myosuroides; conditions: postemergence, 10 days; for Blackgrass plant response rating: 125 g ai/ha, 0 to 100 scale, 0 no effect, 100 complete control; for Plant response rating, Blackgrass: 500 g ai/ha, visual injury, 0 to 100 scale (0 no effect, 100 complete control)
Procedure, shortened: as §2

[22] = test system: corn; assay: Test A preemergence; assay type: in vivo, Zea mays
Procedure, shortened: as §2

[23] = test system: soybean; assay: Test A postemergence; assay type: in vivo, Glycine max; conditions: postemergence, 10 days; for Soybean plant response rating: 125 g ai/ha, 0 to 100 scale, 0 no effect, 100 complete control; for Plant response rating, Soybean: 500 g ai/ha, visual injury, 0 to 100 scale (0 no effect, 100 complete control)
Procedure, shortened: as §2

[24] = test system: sedge, umbrella; assay: Test B flooded paddy test; assay type: in vivo, Cyperus difformis; conditions: 250 g ai/ha, Flood, 13 days, 0 to 100 scale (0 no effect, 100 complete control)
Procedure, shortened: as §1

[25] = test system: ducksalad; assay: Test B flooded paddy test; assay type: in vivo, Heteranthera limosa; conditions: 250 g ai/ha, Flood, 13 days, 0 to 100 scale (0 no effect, 100 complete control)
Procedure, shortened: as §1

[26] = test system: pigweed, palmer; assay: Test A preemergence; assay type: in vivo, Amaranthus palmeri
Procedure, shortened: as §2

[27] = test system: blackgrass; assay: Test A preemergence; assay type: in vivo, Alopecurus myosuroides
Procedure, shortened: as §2

[28] = test system: soybean; assay: Test A preemergence; assay type: in vivo, Glycine max
Procedure, shortened: as §2

[29] = 125 g ai/ha, visual injury after 10 days, 0 to 100 scale, 0 is no effect, 100 is complete control
[30] = 500 g ai/ha, 0 to 100 scale (0 no effect, 100 complete control), 10 days

CCc1ncn(-c2cccc(C(=O)N3C[C@H](C)Oc4c(Cl)cccc43)c2)n1 [Compound 91]
Plant response rating, Barnyardgrass [1]: 25 | Kochia plant response rating [2]: 80 | Plant response rating, Kochia [2]: 100 | Wheat plant response rating [3]: 30 | Plant response rating, Wheat [3]: 80 | Corn plant response rating [4]: 60 | Plant response rating, Corn [4]: 80 | Oat, Wild plant response rating [5]: 50 | Plant response rating, Oat, Wild [5]: 90 | Plant response rating, Ragweed [6, 29]: 0 | Plant response rating, Ragweed [6, 30]: 30 | Pigweed, Palmer plant response rating [7]: 70 | Plant response rating, Pigweed, Palmer [7]: 90 | Plant response rating, Foxtail, Giant [8, 29]: 90 | Plant response rating, Foxtail, Giant [8, 30]: 100 | Ragweed plant response rating [9]: 30 | Plant response rating, Ragweed [9]: 70 | Plant response rating, Oat, Wild [10, 29]: 10 | Plant response rating, Oat, Wild [10, 30]: 90 | Goosegrass plant response rating [11]: 80 | Plant response rating, Goosegrass [11]: 90 | Ryegrass, Italian plant response rating [12]: 80 | Plant response rating, Ryegrass, Italian [12]: 100 | Plant response rating, Wheat [13, 29]: 0 | Plant response rating, Wheat [13, 30]: 20 | Plant response rating, Ryegrass, Italian [14, 29]: 90 | Plant response rating, Ryegrass, Italian [14, 30]: 100 | Plant response rating, Kochia [15, 29]: 90 | Plant response rating, Kochia [15, 30]: 100 | Plant response rating, Goosegrass [16, 29]: 100 | Plant response rating, Goosegrass [16, 30]: 100 | Galium plant response rating [17]: 100 | Plant response rating, Galium [17]: 100 | Horseweed plant response rating [18]: 0 | Plant response rating, Horseweed [18]: 20 | Foxtail, Giant plant response rating [19]: 80 | Plant response rating, Foxtail, Giant [19]: 90 | Plant response rating, Rice [20]: 0 | Blackgrass plant response rating [21]: 90 | Plant response rating, Blackgrass [21]: 100 | Plant response rating, Corn [22, 29]: 30 | Plant response rating, Corn [22, 30]: 60 | Soybean plant response rating [23]: 100 | Plant response rating, Soybean [23]: 100 | Plant response rating, Sedge, Umbrella [24]: 35 | Plant response rating, Ducksalad [25]: 90 | Plant response rating, Pigweed, Palmer [26, 29]: 90 | Plant response rating, Pigweed, Palmer [26, 30]: 100 | Plant response rating, Blackgrass [27, 29]: 80 | Plant response rating, Blackgrass [27, 30]: 90 | Plant response rating, Soybean [28, 29]: 20 | Plant response rating, Soybean [28, 30]: 70

Cc1ccc(-n2cnc(C3CCC3)n2)cc1C(=O)N1C[C@H](C)Oc2c(C)cccc21 [Compound 97]
Plant response rating, Barnyardgrass [1]: 0 | Kochia plant response rating [2]: 70 | Plant response rating, Kochia [2]: 100 | Wheat plant response rating [3]: 20 | Plant response rating, Wheat [3]: 70 | Corn plant response rating [4]: 30 | Plant response rating, Corn [4]: 70 | Oat, Wild plant response rating [5]: 30 | Plant response rating, Oat, Wild [5]: 70 | Plant response rating, Ragweed [6, 29]: 30 | Plant response rating, Ragweed [6, 30]: 80 | Pigweed, Palmer plant response rating [7]: 90 | Plant response rating, Pigweed, Palmer [7]: 100 | Plant response rating, Foxtail, Giant [8, 29]: 100 | Plant response rating, Foxtail, Giant [8, 30]: 100 | Ragweed plant response rating [9]: 50 | Plant response rating, Ragweed [9]: 80 | Plant response rating, Oat, Wild [10, 29]: 90 | Plant response rating, Oat, Wild [10, 30]: 90 | Goosegrass plant response rating [11]: 70 | Plant response rating, Goosegrass [11]: 90 | Ryegrass, Italian plant response rating [12]: 40 | Plant response rating, Ryegrass, Italian [12]: 80 | Plant response rating, Wheat [13, 29]: 10 | Plant response rating, Wheat [13, 30]: 40 | Plant response rating, Ryegrass, Italian [14, 29]: 70 | Plant response rating, Ryegrass, Italian [14, 30]: 100 | Plant response rating, Kochia [15, 29]: 60 | Plant response rating, Kochia [15, 30]: 80 | Plant response rating, Goosegrass [16, 29]: 100 | Plant response rating, Goosegrass [16, 30]: 100 | Galium plant response rating [17]: 80 | Plant response rating, Galium [17]: 100 | Horseweed plant response rating [18]: 30 | Plant response rating, Horseweed [18]: 90 | Foxtail, Giant plant response rating [19]: 90 | Plant response rating, Foxtail, Giant [19]: 90 | Plant response rating, Rice [20]: 0 | Blackgrass plant response rating [21]: 30 | Plant response rating, Blackgrass [21]: 80 | Plant response rating, Corn [22, 29]: 10 | Plant response rating, Corn [22, 30]: 20 | Soybean plant response rating [23]: 100 | Plant response rating, Soybean [23]: 100 | Plant response rating, Sedge, Umbrella [24]: 0 | Plant response rating, Ducksalad [25]: 0 | Plant response rating, Pigweed, Palmer [26, 29]: 100 | Plant response rating, Pigweed, Palmer [26, 30]: 100 | Plant response rating, Blackgrass [27, 29]: 10 | Plant response rating, Blackgrass [27, 30]: 40 | Plant response rating, Soybean [28, 29]: 40 | Plant response rating, Soybean [28, 30]: 100
